From PubChem BioAssay (NCI)
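Where inhibition never reached the appropriate level, the endpoint shown equals the highest concentration tested. Otherwise, values were interpolated linearly from a five-concentration, 48-hour dose response in 96-well plates. TGI: concentration producing complete growth inhibition.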

Experiments:
Test in all cases: NCI tumour cell line growth inhibition, 48 h
HCT-116 colon = tested on: HCT-116 colon
NCI-H226 lung = tested on: NCI-H226 lung
MCF7 breast = tested on: MCF7 breast
RPMI-8226 leukemia = tested on: RPMI-8226 leukemia
UO-31 renal = tested on: UO-31 renal
NCI-H23 lung = tested on: NCI-H23 lung
P388/ADR leukemia = tested on: P388/ADR leukemia
SK-OV-3 ovarian = tested on: SK-OV-3 ovarian
COLO 205 colon = tested on: COLO 205 colon
DMS 273 small cell lung = tested on: DMS 273 small cell lung
K-562 leukemia = tested on: K-562 leukemia
OVCAR-8 ovarian = tested on: OVCAR-8 ovarian
HOP-18 NSCLC = tested on: HOP-18 NSCLC
HT29 colon = tested on: HT29 colon
A549 NSCLC = tested on: A549 NSCLC
HCT-15 colon = tested on: HCT-15 colon
UACC-257 melanoma = tested on: UACC-257 melanoma
SW-620 colon = tested on: SW-620 colon
P388 leukemia = tested on: P388 leukemia
XF 498 CNS = tested on: XF 498 CNS
KM12 colon = tested on: KM12 colon
SF-268 CNS = tested on: SF-268 CNS
HOP-62 NSCLC = tested on: HOP-62 NSCLC
MALME-3M melanoma = tested on: MALME-3M melanoma
EKVX NSCLC = tested on: EKVX NSCLC
RXF 393 renal = tested on: RXF 393 renal
LOX IMVI melanoma = tested on: LOX IMVI melanoma
SF-539 CNS = tested on: SF-539 CNS
SK-MEL-28 melanoma = tested on: SK-MEL-28 melanoma
SNB-78 CNS = tested on: SNB-78 CNS
SN12K1 renal = tested on: SN12K1 renal
OVCAR-5 ovarian = tested on: OVCAR-5 ovarian
HOP-92 NSCLC = tested on: HOP-92 NSCLC
SF-295 CNS = tested on: SF-295 CNS
U251 CNS = tested on: U251 CNS
SK-MEL-2 melanoma = tested on: SK-MEL-2 melanoma
HL-60(TB) leukemia = tested on: HL-60(TB) leukemia
NCI/ADR-RES ovarian = tested on: NCI/ADR-RES ovarian
DLD-1 colon = tested on: DLD-1 colon
UACC-62 melanoma = tested on: UACC-62 melanoma
OVCAR-3 ovarian = tested on: OVCAR-3 ovarian
MOLT-4 leukemia = tested on: MOLT-4 leukemia
KM20L2 colon = tested on: KM20L2 colon
IGROV1 ovarian = tested on: IGROV1 ovarian
NCI-H460 lung = tested on: NCI-H460 lung
SNB-75 CNS = tested on: SNB-75 CNS
SNB-19 CNS = tested on: SNB-19 CNS
CCRF-CEM leukemia = tested on: CCRF-CEM leukemia
HCC-2998 colon = tested on: HCC-2998 colon
NCI-H522 lung = tested on: NCI-H522 lung
CAKI-1 renal = tested on: CAKI-1 renal
SK-MEL-5 melanoma = tested on: SK-MEL-5 melanoma
M19-MEL melanoma = tested on: M19-MEL melanoma
OVCAR-4 ovarian = tested on: OVCAR-4 ovarian
SN12C renal = tested on: SN12C renal
RXF-631 renal = tested on: RXF-631 renal
LXFL 529 NSCLC = tested on: LXFL 529 NSCLC
SR leukemia = tested on: SR leukemia
A498 renal = tested on: A498 renal
TK-10 renal = tested on: TK-10 renal
M14 melanoma = tested on: M14 melanoma
ACHN renal = tested on: ACHN renal
786-0 renal = tested on: 786-0 renal
DMS 114 small cell lung = tested on: DMS 114 small cell lung

CCCCCCCC/C=C\CCCCCCCCCCCC(=O)O
TGI (HCT-116 colon): 60.9 µM | TGI (NCI-H226 lung): 107 µM | TGI (MCF7 breast): 33.8 µM | TGI (RPMI-8226 leukemia): 110 µM | TGI (UO-31 renal): > 125 µM | TGI (NCI-H23 lung): 80.8 µM | TGI (P388/ADR leukemia): 36.3 µM | TGI (SK-OV-3 ovarian): > 125 µM | TGI (COLO 205 colon): 40.4 µM | TGI (DMS 273 small cell lung): 48.7 µM | TGI (K-562 leukemia): 47.4 µM | TGI (OVCAR-8 ovarian): > 109 µM | TGI (HOP-18 NSCLC): > 125 µM | TGI (HT29 colon): > 125 µM | TGI (A549 NSCLC): > 125 µM | TGI (HCT-15 colon): 122 µM | TGI (UACC-257 melanoma): > 125 µM | TGI (SW-620 colon): 90.1 µM | TGI (P388 leukemia): 51.6 µM | TGI (XF 498 CNS): 2.82 µM | TGI (KM12 colon): 70.8 µM | TGI (SF-268 CNS): > 125 µM | TGI (HOP-62 NSCLC): 63.6 µM | TGI (MALME-3M melanoma): > 125 µM | TGI (EKVX NSCLC): 92.8 µM | TGI (RXF 393 renal): 18.4 µM | TGI (LOX IMVI melanoma): 70.8 µM | TGI (SF-539 CNS): 40.4 µM | TGI (SK-MEL-28 melanoma): 108 µM | TGI (SNB-78 CNS): > 115 µM | TGI (SN12K1 renal): 52.4 µM | TGI (OVCAR-5 ovarian): > 125 µM | TGI (HOP-92 NSCLC): 101 µM | TGI (SF-295 CNS): 116 µM | TGI (U251 CNS): 110 µM | TGI (SK-MEL-2 melanoma): 31.1 µM | TGI (HL-60(TB) leukemia): 34.6 µM | TGI (NCI/ADR-RES ovarian): > 125 µM | TGI (DLD-1 colon): > 125 µM | TGI (UACC-62 melanoma): 102 µM | TGI (OVCAR-3 ovarian): 36.5 µM | TGI (MOLT-4 leukemia): 95.2 µM | TGI (KM20L2 colon): 122 µM | TGI (IGROV1 ovarian): > 125 µM | TGI (NCI-H460 lung): 34.9 µM | TGI (SNB-75 CNS): 113 µM | TGI (SNB-19 CNS): > 64.5 µM | TGI (CCRF-CEM leukemia): 57.5 µM | TGI (HCC-2998 colon): > 85.8 µM | TGI (NCI-H522 lung): 40 µM | TGI (CAKI-1 renal): > 117 µM | TGI (SK-MEL-5 melanoma): 57.5 µM | TGI (M19-MEL melanoma): 97.2 µM | TGI (OVCAR-4 ovarian): > 115 µM | TGI (SN12C renal): > 98 µM

N#C/C(=C\c1cccc(Cl)c1Cl)c1ccccc1
TGI (HCT-116 colon): > 67.5 µM | TGI (NCI-H226 lung): > 100 µM | TGI (RPMI-8226 leukemia): > 89.1 µM | TGI (UO-31 renal): > 91.2 µM | TGI (NCI-H23 lung): > 72.9 µM | TGI (SK-OV-3 ovarian): > 89.9 µM | TGI (COLO 205 colon): > 100 µM | TGI (DMS 273 small cell lung): > 54.1 µM | TGI (K-562 leukemia): > 100 µM | TGI (RXF-631 renal): > 100 µM | TGI (OVCAR-8 ovarian): > 100 µM | TGI (HOP-18 NSCLC): > 90.4 µM | TGI (HT29 colon): > 100 µM | TGI (LXFL 529 NSCLC): > 100 µM | TGI (A549 NSCLC): > 100 µM | TGI (HCT-15 colon): > 77.6 µM | TGI (UACC-257 melanoma): > 100 µM | TGI (SW-620 colon): > 72.4 µM | TGI (XF 498 CNS): > 57.4 µM | TGI (KM12 colon): > 100 µM | TGI (SF-268 CNS): > 100 µM | TGI (HOP-62 NSCLC): 60.9 µM | TGI (MALME-3M melanoma): > 70 µM | TGI (EKVX NSCLC): > 100 µM | TGI (RXF 393 renal): > 79.2 µM | TGI (LOX IMVI melanoma): > 100 µM | TGI (SR leukemia): > 80.9 µM | TGI (A498 renal): 89.6 µM | TGI (SF-539 CNS): 53.3 µM | TGI (SK-MEL-28 melanoma): > 100 µM | TGI (SNB-78 CNS): > 100 µM | TGI (OVCAR-5 ovarian): > 100 µM | TGI (HOP-92 NSCLC): > 82.3 µM | TGI (TK-10 renal): 91.6 µM | TGI (SF-295 CNS): 60.4 µM | TGI (U251 CNS): 69.5 µM | TGI (SK-MEL-2 melanoma): > 100 µM | TGI (HL-60(TB) leukemia): > 100 µM | TGI (DLD-1 colon): > 100 µM | TGI (UACC-62 melanoma): > 100 µM | TGI (OVCAR-3 ovarian): > 92.6 µM | TGI (M14 melanoma): > 100 µM | TGI (MOLT-4 leukemia): > 100 µM | TGI (ACHN renal): > 90.8 µM | TGI (786-0 renal): 65.2 µM | TGI (KM20L2 colon): > 100 µM | TGI (IGROV1 ovarian): 55.2 µM | TGI (NCI-H460 lung): > 100 µM | TGI (SNB-75 CNS): 51.1 µM | TGI (SNB-19 CNS): > 90.7 µM | TGI (DMS 114 small cell lung): > 73.1 µM | TGI (CCRF-CEM leukemia): > 46.4 µM | TGI (HCC-2998 colon): > 100 µM | TGI (NCI-H522 lung): > 100 µM | TGI (CAKI-1 renal): 77.7 µM | TGI (SK-MEL-5 melanoma): > 100 µM | TGI (M19-MEL melanoma): > 100 µM | TGI (OVCAR-4 ovarian): > 85.6 µM | TGI (SN12C renal): > 100 µM
